Our source for the IC50 values is patent US6426331B1, “Inhibitors of STAT function” (Tularik Inc., priority 1998, dated 2002).

Molecules are shown by their SMILES. Where only a bound is given, the exact number is not on record here.

In the experiment the target is T1, STAT6 (Homo sapiens, UniProt P42226).
T1 sequence (P42226 1-847): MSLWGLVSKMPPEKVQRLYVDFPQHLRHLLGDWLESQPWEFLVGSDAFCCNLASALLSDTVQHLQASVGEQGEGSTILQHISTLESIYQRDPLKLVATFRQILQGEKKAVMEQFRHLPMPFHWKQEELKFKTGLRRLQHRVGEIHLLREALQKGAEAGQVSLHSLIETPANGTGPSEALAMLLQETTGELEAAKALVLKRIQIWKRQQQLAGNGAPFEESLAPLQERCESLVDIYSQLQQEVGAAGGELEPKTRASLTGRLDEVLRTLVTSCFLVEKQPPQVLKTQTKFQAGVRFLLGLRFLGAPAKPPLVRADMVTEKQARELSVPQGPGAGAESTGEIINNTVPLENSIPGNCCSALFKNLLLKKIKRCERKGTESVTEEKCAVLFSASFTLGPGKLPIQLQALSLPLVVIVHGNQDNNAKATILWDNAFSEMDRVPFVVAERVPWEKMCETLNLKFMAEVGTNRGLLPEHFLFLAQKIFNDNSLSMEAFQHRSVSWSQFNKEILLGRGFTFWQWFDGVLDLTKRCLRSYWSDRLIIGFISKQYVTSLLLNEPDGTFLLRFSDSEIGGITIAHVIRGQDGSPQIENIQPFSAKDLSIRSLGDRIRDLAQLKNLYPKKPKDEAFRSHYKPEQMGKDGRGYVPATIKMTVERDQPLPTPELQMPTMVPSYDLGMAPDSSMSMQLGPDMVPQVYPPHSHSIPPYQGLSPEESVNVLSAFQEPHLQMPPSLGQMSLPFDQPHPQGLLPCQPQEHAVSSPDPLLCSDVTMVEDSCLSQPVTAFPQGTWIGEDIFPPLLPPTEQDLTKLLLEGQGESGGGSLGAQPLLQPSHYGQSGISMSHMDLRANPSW
The experiment in a line: Inhibition of STAT6 binding (duplex formation). The note with it: STAT6 binding. The protocol:
The compounds of the present invention can be evaluated for STAT binding activity using methods such as those described in U.S. Pat. No. 6,207,391 (for STAT6 binding). Other assays for STAT binding can be found in, for example, U.S. Pat. Nos. 5,618,693, 5,639,858 and 5,756,700.
Using methods similar to those described in Examples 1 and 2, the compounds provided in Table 1 were prepared and evaluated as inhibitors of STAT6 binding (duplex formation). The assay is described in U.S. Pat. No. 6,207,391, filed Mar. 31, 1998. In each of the tables below: a + symbol indicates and IC50 of >100 μM; a ++ symbol indicates and IC50 of 50-100 μM; a +++ symbol indicates and IC50 of 1-50 μM; and a ++++ symbol indicates and IC50 of <1.0 μM.

In turn, `CC(=O)NCc1ccc(CN(C(=O)C2CCCN2C(=O)C(NC(=O)C=Cc2ccc(OP(=O)(O)O)cc2)C(C)(C)C)c2ccc(C(N)=O)cc2)cc1` (stereo not drawn) [drawing 70: 4-CONH2,4-CH2NHAc] registered an IC50 (Table 4) of under 1 µM.

For `CC(C)(C)C(NC(=O)C=Cc1ccc(OP(=O)(O)O)cc1)C(=O)N1CCCC1C(=O)N(Cc1ccc(I)cc1)c1ccccc1` (stereo not drawn) [drawing 70: H, 4-I], the IC50 (Table 4) is under 1 µM. As to `CC(C)(C)C(NC(=O)C=Cc1ccc(OP(=O)(O)O)cc1)C(=O)N1CCCC1C(=O)N(Cc1ccc(-c2ccccc2)cc1)c1ccccc1` (stereo not drawn) [drawing 70: H, 4-phenyl], the IC50 (Table 4) was 1 to 50 µM. The same measure, in the same setting: to `CC(C)(C)c1ccc(CN(C(=O)C2CCCN2C(=O)C(NC(=O)C=Cc2ccc(OP(=O)(O)O)cc2)C(C)(C)C)c2ccccc2)cc1` (stereo not drawn) [drawing 70: H, 4-t-butyl] belongs 1 to 50 µM. Regarding `CC(=O)NCc1cccc(CN(Cc2cccc(C(N)=O)c2)C(=O)C2CCCN2C(=O)C(NC(=O)C=Cc2ccc(OP(=O)(O)O)cc2)C(C)(C)C)c1` (stereo not drawn) [drawing 71: 3-CONH2,3-CH2NHAc], the IC50 (Table 5) lay in the range of 1 to 50 µM.

Compound `CC(=O)NCc1cccc(CN(Cc2ccc(C(N)=O)cc2)C(=O)C2CCCN2C(=O)C(NC(=O)C=Cc2ccc(OP(=O)(O)O)cc2)C(C)(C)C)c1` (stereo not drawn) [drawing 71: 4-CONH2,3-CH2NHAc] displayed an IC50 (Table 5) of under 1 µM. On the same count and under the same terms, to `CC(=O)NCc1ccc(CN(Cc2ccc(C(N)=O)cc2)C(=O)C2CCCN2C(=O)C(NC(=O)C=Cc2ccc(OP(=O)(O)O)cc2)C(C)(C)C)cc1` (stereo not drawn) [drawing 71: 4-CONH2,4-CH2NHAc] belongs under 1 µM. On the same count and under the same terms, to `CC(C)(C)C(NC(=O)C=Cc1ccc(OP(=O)(O)O)cc1)C(=O)N1CCCC1C(=O)N(Cc1ccc(C#N)cc1)Cc1ccc(C(N)=O)cc1` (stereo not drawn) [drawing 71: 4-CONH2,4-CN] belongs under 1 µM; to `CC(C)(C)C(NC(=O)C=Cc1ccc(OP(=O)(O)O)cc1)C(=O)N1CCCC1C(=O)N(Cc1ccccc1)Cc1ccc(C(N)=O)cc1` (stereo not drawn) [drawing 71: 4-CONH2, H], under 1 µM.

Usually IC50 stands for the concentration at which inhibition is half-maximal.
